According to patent publication US7153865B2, “N-type calcium channel antagonists for the treatment of pain” (Astrazeneca AB, priority 2001, dated 2006):
pIC50: −log10 of the molar value.

What was measured:
NK-1 receptor = details: phenylbenzoquinone-induced writhing and formalin test; compared with morphine; cited from earlier work
N-type calcium channel = N-type calcium channel (Homo sapiens, UniProt Q00975); assay: N-channel FLIPR (Fluorescent Laser Imaging Plate Reader) assay; assay type: cell-based; details: differentiated IMR32 cells, 80 mM K+ stimulus; unit inferred
[1] = test system: formalin-induced nocifensive behaviours; assay: Formalin test; assay type: in vivo, rats; details: dose 60, time 40, route IP (units of dose and time not given)

Sequence of N-type calcium channel (Q00975 whole entry): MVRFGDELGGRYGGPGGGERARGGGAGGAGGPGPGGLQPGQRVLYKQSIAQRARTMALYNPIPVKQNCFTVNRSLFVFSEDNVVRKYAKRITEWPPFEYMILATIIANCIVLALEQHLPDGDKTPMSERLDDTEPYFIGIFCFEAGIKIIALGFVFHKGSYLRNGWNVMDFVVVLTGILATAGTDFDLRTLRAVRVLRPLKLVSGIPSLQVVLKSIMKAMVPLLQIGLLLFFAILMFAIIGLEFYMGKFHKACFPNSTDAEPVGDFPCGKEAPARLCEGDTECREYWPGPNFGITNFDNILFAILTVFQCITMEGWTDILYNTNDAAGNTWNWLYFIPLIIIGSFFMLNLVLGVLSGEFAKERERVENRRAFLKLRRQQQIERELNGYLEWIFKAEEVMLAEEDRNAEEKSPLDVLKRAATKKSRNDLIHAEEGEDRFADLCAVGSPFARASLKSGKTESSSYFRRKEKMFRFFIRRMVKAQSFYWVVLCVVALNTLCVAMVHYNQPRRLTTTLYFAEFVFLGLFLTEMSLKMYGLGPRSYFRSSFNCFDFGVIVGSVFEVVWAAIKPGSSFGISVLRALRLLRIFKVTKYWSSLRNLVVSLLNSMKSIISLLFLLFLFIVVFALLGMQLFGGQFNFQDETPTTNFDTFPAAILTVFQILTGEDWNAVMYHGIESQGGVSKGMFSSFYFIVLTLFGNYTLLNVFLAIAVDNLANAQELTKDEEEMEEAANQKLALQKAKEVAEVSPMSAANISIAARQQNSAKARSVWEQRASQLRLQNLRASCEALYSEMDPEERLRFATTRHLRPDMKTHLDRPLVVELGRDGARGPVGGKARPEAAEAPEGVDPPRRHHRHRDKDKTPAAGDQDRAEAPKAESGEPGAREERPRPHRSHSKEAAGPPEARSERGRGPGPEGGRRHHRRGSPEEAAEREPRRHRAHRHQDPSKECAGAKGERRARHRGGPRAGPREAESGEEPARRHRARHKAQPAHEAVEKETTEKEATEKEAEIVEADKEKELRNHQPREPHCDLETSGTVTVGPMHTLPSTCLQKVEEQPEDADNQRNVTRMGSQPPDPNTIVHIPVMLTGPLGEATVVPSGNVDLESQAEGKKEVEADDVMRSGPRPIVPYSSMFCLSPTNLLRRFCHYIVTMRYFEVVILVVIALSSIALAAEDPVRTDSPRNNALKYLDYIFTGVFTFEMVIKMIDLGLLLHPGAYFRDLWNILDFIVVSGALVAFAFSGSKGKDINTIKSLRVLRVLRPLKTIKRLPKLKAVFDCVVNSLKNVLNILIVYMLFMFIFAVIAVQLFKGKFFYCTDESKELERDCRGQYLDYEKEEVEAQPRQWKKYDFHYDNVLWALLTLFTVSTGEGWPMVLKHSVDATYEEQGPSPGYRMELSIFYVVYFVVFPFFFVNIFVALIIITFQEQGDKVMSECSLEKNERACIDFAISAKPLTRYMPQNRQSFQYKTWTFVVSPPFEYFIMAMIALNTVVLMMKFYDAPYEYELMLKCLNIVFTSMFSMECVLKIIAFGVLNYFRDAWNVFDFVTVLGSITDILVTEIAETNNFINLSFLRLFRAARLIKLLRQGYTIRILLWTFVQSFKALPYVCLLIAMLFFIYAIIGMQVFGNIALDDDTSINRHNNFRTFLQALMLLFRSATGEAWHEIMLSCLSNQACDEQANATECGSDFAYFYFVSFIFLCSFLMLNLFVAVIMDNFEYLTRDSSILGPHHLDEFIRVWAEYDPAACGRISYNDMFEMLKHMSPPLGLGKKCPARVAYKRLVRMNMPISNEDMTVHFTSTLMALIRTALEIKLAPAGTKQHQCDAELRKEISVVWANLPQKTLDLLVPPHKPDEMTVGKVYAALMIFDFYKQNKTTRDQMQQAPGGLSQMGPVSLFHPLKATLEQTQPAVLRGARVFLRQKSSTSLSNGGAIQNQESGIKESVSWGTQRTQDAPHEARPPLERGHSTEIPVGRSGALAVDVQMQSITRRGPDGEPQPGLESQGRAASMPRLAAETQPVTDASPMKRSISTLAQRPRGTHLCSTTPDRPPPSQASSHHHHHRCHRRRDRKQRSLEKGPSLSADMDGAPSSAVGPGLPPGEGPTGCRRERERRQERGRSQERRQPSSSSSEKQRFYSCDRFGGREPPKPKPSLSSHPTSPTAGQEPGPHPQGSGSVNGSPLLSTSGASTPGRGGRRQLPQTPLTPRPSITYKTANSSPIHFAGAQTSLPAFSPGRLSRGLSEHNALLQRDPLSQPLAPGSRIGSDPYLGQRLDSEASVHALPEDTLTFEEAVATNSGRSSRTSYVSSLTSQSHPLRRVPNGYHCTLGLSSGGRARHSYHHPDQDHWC
Sequence of N-type calcium channel (P54284 whole entry partner): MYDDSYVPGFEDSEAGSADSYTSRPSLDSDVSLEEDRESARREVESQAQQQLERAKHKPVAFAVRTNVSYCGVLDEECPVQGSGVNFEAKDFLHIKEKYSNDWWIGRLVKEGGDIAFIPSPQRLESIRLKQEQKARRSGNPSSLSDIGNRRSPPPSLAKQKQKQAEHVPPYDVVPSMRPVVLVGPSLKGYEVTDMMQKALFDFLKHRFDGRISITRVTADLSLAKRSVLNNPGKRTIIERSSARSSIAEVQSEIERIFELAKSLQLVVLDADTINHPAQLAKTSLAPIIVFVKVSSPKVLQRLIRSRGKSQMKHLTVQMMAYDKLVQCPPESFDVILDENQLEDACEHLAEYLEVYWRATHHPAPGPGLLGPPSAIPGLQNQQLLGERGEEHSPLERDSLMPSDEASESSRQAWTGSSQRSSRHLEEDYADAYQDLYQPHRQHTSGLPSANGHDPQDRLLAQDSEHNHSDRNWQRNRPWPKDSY
Sequence of N-type calcium channel (P54289 25-956 partner limits assumed): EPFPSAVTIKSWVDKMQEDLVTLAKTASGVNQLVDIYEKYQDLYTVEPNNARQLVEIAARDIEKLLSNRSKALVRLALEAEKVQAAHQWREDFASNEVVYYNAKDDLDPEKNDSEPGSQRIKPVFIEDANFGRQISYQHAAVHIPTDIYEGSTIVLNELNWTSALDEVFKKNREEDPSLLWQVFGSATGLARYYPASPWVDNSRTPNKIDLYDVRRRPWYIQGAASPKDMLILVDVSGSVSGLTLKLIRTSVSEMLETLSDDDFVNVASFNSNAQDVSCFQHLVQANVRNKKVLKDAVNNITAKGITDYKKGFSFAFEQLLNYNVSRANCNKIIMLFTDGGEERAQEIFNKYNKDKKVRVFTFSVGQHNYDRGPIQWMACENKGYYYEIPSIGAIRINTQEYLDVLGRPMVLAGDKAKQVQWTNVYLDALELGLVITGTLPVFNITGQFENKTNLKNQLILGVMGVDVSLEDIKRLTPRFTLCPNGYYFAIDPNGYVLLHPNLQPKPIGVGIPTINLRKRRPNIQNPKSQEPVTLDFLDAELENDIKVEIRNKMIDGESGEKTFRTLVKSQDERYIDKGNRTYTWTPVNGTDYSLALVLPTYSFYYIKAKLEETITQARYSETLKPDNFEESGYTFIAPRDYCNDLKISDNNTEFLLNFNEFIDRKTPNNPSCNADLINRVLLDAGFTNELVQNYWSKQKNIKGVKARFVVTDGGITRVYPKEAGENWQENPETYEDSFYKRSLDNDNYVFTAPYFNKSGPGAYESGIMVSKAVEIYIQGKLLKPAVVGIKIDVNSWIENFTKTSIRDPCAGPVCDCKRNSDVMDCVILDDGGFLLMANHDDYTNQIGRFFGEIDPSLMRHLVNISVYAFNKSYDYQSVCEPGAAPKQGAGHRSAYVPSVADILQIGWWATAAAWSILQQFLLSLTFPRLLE
Sequence of N-type calcium channel (P54289 957-1103 partner limits assumed): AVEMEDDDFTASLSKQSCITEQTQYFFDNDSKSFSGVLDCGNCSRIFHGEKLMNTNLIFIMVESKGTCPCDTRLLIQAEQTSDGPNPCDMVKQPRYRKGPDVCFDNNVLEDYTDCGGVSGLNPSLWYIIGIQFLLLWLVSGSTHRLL

| SMILES | pIC50 (N-type calcium channel) | further results |
| --- | --- | --- |
| COc1ccccc1CC(=N)N1C[C@@H]2C(=O)CCC(c3ccccc3)(c3ccccc3)[C@@H]2C1 [RP 67,580] | – | analgesia in chemo-nociception tests (NK-1 receptor): produced analgesia with potency comparable to that of morphine |
| Nc1ccccc1Nc1cc(Nc2ccc(Cl)c(Cl)c2)c2cccc(F)c2n1 [Example 14, N2-(2-Amino-phenyl)-N4-(3,4-dichloro-phenyl)-8-fluoro-quinoline-2,4-diamine] | 5.40 | – |
| Clc1ccc(Nc2cc(Nc3ccccc3N3CCOCC3)nc3ccccc23)cc1Cl [Example 2, N4-(3,4-Dichloro-phenyl)-N2-(2-morpholin-4-yl-phenyl)-quinoline-2,4-diamine] | – | Formalin test % inhibition (dose, time route) [1]: 42 (60, 40, IP) % |
| Nc1ccccc1Nc1cc(Nc2ccc(Cl)c(Cl)c2)c2ccccc2n1 [Example 27, N2-(2-amino-phenyl)-N4-(3,4-dichloro-phenyl)-quinoline-2,4-diamine] | 5.01 | – |
